Measurements reported in US12612407B2, “Imidazo[2,1-f][1,2,4]triazin-4-amine derivatives as TLR7 agonist” (BEIGENE, LTD., priority 2020, dated 2026).
pEC50: −log10 of the molar value.

What follows are compounds tested against T1, human TLR7 (Homo sapiens, UniProt Q9NYK1) (assay: HEK293-Blue hTLR7 Reporter Assay (QUANTI-BLUE, SEAP readout)). Conditions: HEK-Blue-hTLR7 cells, 24 hrs treatment, Table 1, B1-B232.
T1 construct: host or cells: HEK293 (HEK-Blue hTLR7)
T1 sequence (Q9NYK1 27-1049): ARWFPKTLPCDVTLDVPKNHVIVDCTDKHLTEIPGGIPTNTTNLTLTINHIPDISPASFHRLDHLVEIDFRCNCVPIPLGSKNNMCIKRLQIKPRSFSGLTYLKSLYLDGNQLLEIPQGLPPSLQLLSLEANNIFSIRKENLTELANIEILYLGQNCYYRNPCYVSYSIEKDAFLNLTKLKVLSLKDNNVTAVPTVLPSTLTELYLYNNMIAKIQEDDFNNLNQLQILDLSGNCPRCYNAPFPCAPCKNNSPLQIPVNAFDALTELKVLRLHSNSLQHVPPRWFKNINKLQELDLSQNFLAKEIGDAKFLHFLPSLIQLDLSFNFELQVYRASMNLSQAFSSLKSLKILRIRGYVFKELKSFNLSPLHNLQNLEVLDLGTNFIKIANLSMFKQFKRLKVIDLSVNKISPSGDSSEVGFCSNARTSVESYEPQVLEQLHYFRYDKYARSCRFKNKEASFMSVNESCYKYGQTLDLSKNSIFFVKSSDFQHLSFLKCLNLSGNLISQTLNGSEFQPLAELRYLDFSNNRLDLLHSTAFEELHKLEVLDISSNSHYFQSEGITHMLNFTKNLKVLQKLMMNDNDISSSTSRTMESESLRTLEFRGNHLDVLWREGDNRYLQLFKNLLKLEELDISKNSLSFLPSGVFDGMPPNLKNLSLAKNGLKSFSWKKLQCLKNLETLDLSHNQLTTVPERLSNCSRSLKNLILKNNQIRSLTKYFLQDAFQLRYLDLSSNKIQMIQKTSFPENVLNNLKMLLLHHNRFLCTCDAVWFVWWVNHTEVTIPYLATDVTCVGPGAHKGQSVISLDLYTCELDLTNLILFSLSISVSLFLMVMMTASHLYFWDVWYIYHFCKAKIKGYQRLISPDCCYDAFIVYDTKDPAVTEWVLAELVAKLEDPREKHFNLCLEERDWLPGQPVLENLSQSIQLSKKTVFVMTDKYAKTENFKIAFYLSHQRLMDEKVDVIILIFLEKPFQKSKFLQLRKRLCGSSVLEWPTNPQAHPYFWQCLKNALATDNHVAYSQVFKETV
Format: cell-based
Method in brief: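 HEK-Blue-hTLR7 cells expressing NF-κB/AP-1-driven SEAP, 4×10^4 cells/well, treated 24 h at 37° C with increasing compound concentrations. Supernatant SEAP measured with Quanti-blue substrate (10-30 min, 37° C) at 620-655 nm; EC50 from sigmoidal dose-response fit.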

| SMILES | pEC50 |
| --- | --- |
| CCCCOc1nc(N)c2ncc(Cc3cnc(N4CCNC[C@@H]4C)c(C)c3)n2n1 [Compound B73, (S)-2-butoxy-7-((5-methyl-6-(2-methylpiperazin-1-yl)pyridine-3-yl)methyl)imidazo[2,1-f][1,2,4]triazin-4-amine] | 6.27 |
| CCCCOc1nc(N)c2ncc(Cc3cnc(N4CCNC[C@H]4C)c(C)c3)n2n1 [Compound B74, (R)-2-butoxy-7-((5-methyl-6-(2-methylpiperazin-1-yl)pyridin-3-yl)methyl)imidazo[2,1-f][1,2,4]triazin-4-amine] | 7.14 |
| CCCCOc1nc(N)c2ncc(Cc3cnc(N4CCN(CCNC)CC4)c(C)c3)n2n1 [Compound B75, 2-butoxy-7-((5-methyl-6-(4-(2-(methylamino)ethyl)piperazin-1-yl)pyridin-3-yl)methyl)imidazo[2,1-f][1,2,4]triazin-4-amine] | 6.92 |
| CCCCOc1nc(N)c2ncc(Cc3cnc(N4CCN(CCN(C)C)CC4)c(C)c3)n2n1 [Compound B76, 2-butoxy-7-((6-(4-(2-(dimethylamino)ethyl)piperazin-1-yl)-5-methylpyridin-3-yl)methyl)imidazo[2,1-f][1,2,4]triazin-4-amine] | 7.03 |
| CCCCOc1nc(N)c2ncc(Cc3cnc(N4CCC(N(C)C)CC4)c(C)c3)n2n1 [Compound B78, 2-butoxy-7-((6-(4-(dimethylamino)piperidin-1-yl)-5-methylpyridin-3-yl)methyl)imidazo[2,1-f][1,2,4]triazin-4-amine] | 7.33 |
| CCCCOc1nc(N)c2ncc(Cc3cnc(N4C[C@H]5C[C@@H]4CN5)c(C)c3)n2n1 [Compound B79, 7-((6-((1R,4R)-2,5-diazabicyclo[2.2.1]heptan-2-yl)-5-methylpyridin-3-yl)methyl)-2-butoxyimidazo[2,1-f][1,2,4]triazin-4-amine] | 6.30 |
| C=CCCOc1nc(N)c2ncc(Cc3cnc(N4CCNCC4)c(C)c3)n2n1 [Compound B80, 2-(but-3-en-1-yloxy)-7-((5-methyl-6-(piperazin-1-yl)pyridin-3-yl)methyl)imidazo[2,1-f][1,2,4]triazin-4-amine] | 6.62 |
| CCCCOc1nc(N)c2ncc(Cc3cnc(N4CCN(C(=O)[C@@H](N)Cc5ccccc5)CC4)c(C)c3)n2n1 [Compound B81, (S)-2-amino-1-(4-(5-((4-amino-2-butoxyimidazo[2,1-f][1,2,4]triazin-7-yl)methyl)-3-methylpyridin-2-yl)piperazin-1-yl)-3-phenylpropan-1-one] | 5.35 |
| CCCCOc1nc(N)c2ncc(Cc3cnc(N4CCC5(CCNC5)CC4)c(C)c3)n2n1 [Compound B82, 2-butoxy-7-((5-methyl-6-(2,8-diazaspiro[4.5]decan-8-yl)pyridin-3-yl)methyl)imidazo[2,1-f][1,2,4]triazin-4-amine] | 6.37 |
| CCCCOc1nc(N)c2ncc(Cc3cnc(N4CCC5(CCCC5)CC4)c(C)c3)n2n1 [Compound B83, 2-butoxy-7-((5-methyl-6-(8-azaspiro[4.5]decan-8-yl)pyridin-3-yl)methyl)imidazo[2,1-f][1,2,4]triazin-4-amine] | < 5.00 |
| Cc1cc(Cc2cnc3c(N)nc(NCCC(C)C)nn23)cnc1N1CCNCC1 [Compound B85, N^2-isopentyl-7-((5-methyl-6-(piperazin-1-yl)pyridin-3-yl)methyl)imidazo[2,1-f][1,2,4]triazine-2,4-diamine] | 5.87 |
| CCCCOc1nc(N)c2ncc(Cc3cnc(N4CCC(N(C)C)C4)c(C)c3)n2n1 (stereo not shown) [Compound B87, 2-butoxy-7-((6-(3-(dimethylamino)pyrrolidin-1-yl)-5-methylpyridin-3-yl)methyl)imidazo[2,1-f][1,2,4]triazin-4-amine] | 6.36 |
| CCCCNc1nc(N)c2ncc(Cc3cnc(N4CCC(N)CC4)c(C)c3)n2n1 [Compound B88, 7-((6-(4-aminopiperidin-1-yl)-5-methylpyridin-3-yl)methyl)-N2-butylimidazo[2,1-f][1,2,4]triazine-2,4-diamine] | 7.21 |
| CCCCOc1nc(N)c2ncc(Cc3cnc(N4CCN(S(=O)(=O)CCC)CC4)c(C)c3)n2n1 [Compound B89, 2-butoxy-7-((5-methyl-6-(4-(propylsulfonyl)piperazin-1-yl)pyridin-3-yl)methyl)imidazo[2,1-f][1,2,4]triazin-4-amine] | < 5.00 |
| CCCCOc1nc(N)c2ncc(Cc3ccc(N4CCNCC4)c(C(C)C)c3)n2n1 [Compound B90, 2-butoxy-7-(3-isopropyl-4-(piperazin-1-yl)benzyl)imidazo[2,1-f][1,2,4]triazin-4-amine] | 5.63 |
| CCCCOc1nc(N)c2ncc(Cc3cnc(N4CCN(CCN)CC4)c(C)c3)n2n1 [Compound B91, 7-((6-(4-(2-aminoethyl)piperazin-1-yl)-5-methylpyridin-3-yl)methyl)-2-butoxyimidazo[2,1-f][1,2,4]triazin-4-amine] | 6.82 |
| CCCCOc1nc(N)c2ncc(Cc3ccc(N4CCNCC4)c(CC)c3)n2n1 [Compound B92, 2-butoxy-7-(3-ethyl-4-(piperazin-1-yl)benzyl)imidazo[2,1-f][1,2,4]triazin-4-amine] | 6.33 |
| CCCOc1nc(N)c2ncc(Cc3cnc(N4CCNCC4)c(C)c3)n2n1 [Compound B93, 7-((5-methyl-6-(piperazin-1-yl)pyridin-3-yl)methyl)-2-propoxyimidazo[2,1-f][1,2,4]triazin-4-amine] | 6.19 |
| CCCC(C)Oc1nc(N)c2ncc(Cc3cnc(N4CCN(C(=O)CN(C)C)CC4)c(C)c3)n2n1 (stereo not shown) [Compound B94, 1-(4-(5-((4-amino-2-(pentan-2-yloxy)imidazo[2,1-f] [1,2,4]triazin-7-yl)methyl)-3-methylpyridin-2-yl)piperazin-1-yl)-2-(dimethylamino)ethan-1-one] | 7.89 |
| CCCCOc1nc(N)c2ncc(Cc3cnc(N4CCC(C(=O)N(C)C)CC4)c(C)c3)n2n1 [Compound B95, 1-(5-((4-amino-2-butoxyimidazo[2,1-f][1,2,4]triazin-7-yl)methyl)-3-methylpyridin-2-yl)-N,N-dimethylpiperidine-4-carboxamide] | 5.36 |
| CCCCNc1nc(N)c2ncc(Cc3cnc(N4CCC(CN(C)C)CC4)c(C)c3)n2n1 [Compound B96, N2-butyl-7-((6-(4-((dimethylamino)methyl)piperidin-1-yl)-5-methylpyridin-3-yl)methyl)imidazo[2,1-f][1,2,4]triazine-2,4-diamine] | 7.77 |
| CCCCOc1nc(N)c2ncc(Cc3cnc(N4CCN[C@H](C)C4)c(C)c3)n2n1 [Compound B97, (R)-2-butoxy-7-((5-methyl-6-(3-methylpiperazin-1-yl)pyridin-3-yl)methyl)imidazo[2,1-f][1,2,4]triazin-4-amine] | 6.79 |
| CCCCOc1nc(N)c2ncc(Cc3ccc(N4CCN[C@H](C)C4)c(C)c3)n2n1 [Compound B98, (R)-2-butoxy-7-(3-methyl-4-(3-methylpiperazin-1-yl)benzyl)imidazo[2,1-f][1,2,4]triazin-4-amine] | 5.95 |
| CCCCOc1nc(N)c2ncc(Cc3ccc(N4CCNCC4)c(OCCC)c3)n2n1 [Compound B99, 2-butoxy-7-(4-(piperazin-1-yl)-3-propoxybenzyl)imidazo[2,1-f][1,2,4]triazin-4-amine] | 6.03 |
| COCCOCCOCCOCCOc1nc(N)c2ncc(Cc3cnc(N4CCNCC4)c(C)c3)n2n1 [Compound B100, 2-((2,5,8,11-tetraoxatridecan-13-yl)oxy)-7-((5-methyl-6-(piperazin-1-yl)pyridin-3-yl)methyl)imidazo[2,1-f][1,2,4]triazin-4-amine] | < 5.00 |
